Data reported in US9796733B2, “Imidazo-pyrazine derivatives useful as soluble guanylate cyclase activators” (Merck Sharp & Dohme Corp., priority 2014, dated 2017).
pEC50: −log10 of the molar value.

Tests used:
sGC α1/β1 heterodimer = molecular target: T1, sGC α1/β1 heterodimer (Homo sapiens, UniProt Q02108+Q02153); assay: Cell-based sGC functional assay (CASA assay): cGMP generation in CHO-K1/sGC cells, HTRF detection; details: for Emax: CHO-K1, percent activation relative to standard Compound A in CHO-K1/sGC cells, read-out: % Act.; for pEC50: inflection point (IP) of cGMP generation in CHO-K1/sGC cells, 4P fit, activity expressed as percentage of Compound A
T1 construct: expressed in transfected cells; host or cells: CHO-K1 (clone #7, CHO-K1/sGC)
T1 sequence (Q02108 1-690): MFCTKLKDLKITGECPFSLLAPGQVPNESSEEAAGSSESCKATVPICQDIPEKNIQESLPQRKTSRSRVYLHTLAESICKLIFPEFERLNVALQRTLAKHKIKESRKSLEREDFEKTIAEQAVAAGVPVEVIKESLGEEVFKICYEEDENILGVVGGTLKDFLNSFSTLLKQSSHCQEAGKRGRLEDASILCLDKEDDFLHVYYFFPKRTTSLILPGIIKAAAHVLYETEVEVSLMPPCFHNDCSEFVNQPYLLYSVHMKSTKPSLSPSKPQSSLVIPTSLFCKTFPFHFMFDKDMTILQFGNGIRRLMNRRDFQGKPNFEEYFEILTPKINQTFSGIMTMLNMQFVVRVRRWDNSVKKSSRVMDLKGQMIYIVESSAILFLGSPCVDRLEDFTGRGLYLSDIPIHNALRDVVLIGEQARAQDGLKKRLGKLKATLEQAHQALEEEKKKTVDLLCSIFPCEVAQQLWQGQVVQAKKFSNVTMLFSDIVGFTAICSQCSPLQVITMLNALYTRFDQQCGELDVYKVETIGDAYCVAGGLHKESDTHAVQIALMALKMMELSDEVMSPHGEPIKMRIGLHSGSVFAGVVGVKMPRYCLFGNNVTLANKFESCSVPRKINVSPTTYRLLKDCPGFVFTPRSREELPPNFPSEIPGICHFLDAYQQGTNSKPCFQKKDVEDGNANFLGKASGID
T1 sequence (Q02153 1-619): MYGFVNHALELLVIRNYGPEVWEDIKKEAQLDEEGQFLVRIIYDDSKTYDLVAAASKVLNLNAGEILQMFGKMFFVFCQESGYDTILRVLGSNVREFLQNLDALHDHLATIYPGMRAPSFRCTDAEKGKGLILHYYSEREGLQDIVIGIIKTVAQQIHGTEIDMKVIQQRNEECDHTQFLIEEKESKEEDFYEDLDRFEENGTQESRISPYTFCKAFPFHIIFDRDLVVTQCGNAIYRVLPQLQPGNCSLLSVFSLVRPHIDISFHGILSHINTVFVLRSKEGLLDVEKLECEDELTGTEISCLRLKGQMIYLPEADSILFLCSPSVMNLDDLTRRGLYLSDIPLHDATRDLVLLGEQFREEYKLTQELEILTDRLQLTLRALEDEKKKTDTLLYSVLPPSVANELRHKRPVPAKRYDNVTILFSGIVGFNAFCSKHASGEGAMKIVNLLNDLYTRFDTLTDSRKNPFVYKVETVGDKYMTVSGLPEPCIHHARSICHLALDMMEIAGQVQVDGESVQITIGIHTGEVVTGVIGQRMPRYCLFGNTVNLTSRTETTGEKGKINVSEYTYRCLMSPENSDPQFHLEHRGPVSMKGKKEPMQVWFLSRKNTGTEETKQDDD
Outline: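 Stable CHO-K1/sGC cells in EBSS buffer with 5 mM MgCl2, 0.05% BSA and 0.5 mM IBMX were incubated with compound (2.5% DMSO final) ±1 μM DETA-NO for 1 hr at 37° C. cGMP was measured by HTRF. Activation is expressed as % of reference HDA Compound A maximum, with IP and max fold induction from a 4P fit.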

[1] = system: Spontaneously hypertensive rats (SHR); assay: Acute efficacy in spontaneously hypertensive rats (SHR): telemetry blood pressure lowering after a single oral dose; assay type: in vivo, rat
Outline: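 Male SHR carrying aortic telemetry implants (14-day recovery) received a single oral gavage of compound or vehicle (10% transcutol/20% Cremophor/70% water). Conscious blood pressure was sampled 30 s every 10 min and averaged hourly; change was taken against the prior-day vehicle baseline, reported as maximum peak SBP decrease at a given PO dose (mpk).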

Row | SMILES | Emax (sGC α1/β1 heterodimer) | pEC50 (sGC α1/β1 heterodimer) | Maximum peak decrease of systolic blood pressure (SBP) in SHR, Cat. ([1]; P.O. 1.0 mpk) | Maximum peak decrease of systolic blood pressure (SBP) in SHR, Cat. ([1]; P.O. 3.0 mpk) | Maximum peak decrease of systolic blood pressure (SBP) in SHR, Cat. ([1]; P.O. 0.3 mpk)
1 | Nc1nc(-c2cn3ccnc3c(CCCC(F)(F)F)n2)nc2c1C(c1ccc(C(F)(F)F)cn1)(C1CC1)C(=O)N2 (stereo not drawn) [Example 219A, 4-amino-5-cyclopropyl-2-(8-(4,4,4-trifluorobutyl)imidazo[1,2-a]pyrazin-6-yl)-5-(5-(trifluoromethyl)pyridin-2-yl)-5H-pyrrolo[2,3-d]pyrimidin-6(7H)-one] | 124% | 7.28 | B (Category B=SBP in SHRs 20-40 mmHg) | – | –
2 | CC1(c2ncccn2)C(=O)Nc2nc(-c3cn4ccnc4c(CCC(F)(F)C(F)(F)F)n3)nc(N)c21 (stereo not drawn) [Example 220B, 4-amino-5-methyl-2-(8-(3,3,4,4,4-pentafluorobutyl)imidazo [1,2-a]pyrazin-6-yl)-5-(pyrimidin-2-yl)-5H-pyrrolo[2,3-d]pyrimidin-6(7H)-one] | 100% | 6.39 | – | A (Category A=SBP in SHRs<20 mmHg) | –
3 | Nc1nc(-c2cn3ccnc3c(CCC(F)(F)C(F)(F)F)n2)nc2c1C(c1ccc(F)cn1)(C1CC1)C(=O)N2 (stereo not drawn) [Example 223A, 4-amino-5-cyclopropyl-5-(5-fluoropyridin-2-yl)-2-(8-(3,3,4,4,4-pentafluorobutyl)imidazo [1,2-a]pyrazin-6-yl)-5H-pyrrolo[2,3-d]pyrimidin-6(7H)-one] | 84% | 6.75 | B (Category B=SBP in SHRs 20-40 mmHg) | – | –
4 | CC(C)c1ccc(C2(C)C(=O)Nc3nc(-c4cn5ccnc5c(CCC(F)(F)C(F)(F)F)n4)nc(N)c32)nc1 (stereo not drawn) [Example 225A, 4-amino-5-(5-isopropylpyridin-2-yl)-5-methyl-2-(8-(3,3,4,4,4-pentafluorobutyl)imidazo [1,2-a]pyrazin-6-yl)-5H-pyrrolo[2,3-d]pyrimidin-6(7H)-one] | 82% | 6.78 | A (Category A=SBP in SHRs<20 mmHg) | – | –

The next lines start with results.

Row | Emax (sGC α1/β1 heterodimer) | pEC50 (sGC α1/β1 heterodimer) | SMILES | Maximum peak decrease of systolic blood pressure (SBP) in SHR, Cat. ([1]; P.O. 1.0 mpk) | Maximum peak decrease of systolic blood pressure (SBP) in SHR, Cat. ([1]; P.O. 3.0 mpk) | Maximum peak decrease of systolic blood pressure (SBP) in SHR, Cat. ([1]; P.O. 0.3 mpk)
5 | 107% | 6.30 | Cc1ccc(C2(C)C(=O)Nc3nc(-c4cn5ccnc5c(CCC(F)(F)C(F)(F)F)n4)nc(N)c32)cn1 (stereo not drawn) [Example 221A, 4-amino-5-methyl-5-(6-methylpyridin-3-yl)-2-(8-(3,3,4,4,4-pentafluorobutyl)imidazo [1,2-a]pyrazin-6-yl)-5H-pyrrolo[2,3-d]pyrimidin-6(7H)-one] | A (Category A=SBP in SHRs<20 mmHg) | – | –
6 | 108% | 7.70 | CC1(c2ccc(Cl)cn2)C(=O)Nc2nc(-c3cn4ccnc4c(CCC(F)(F)C(F)(F)F)n3)nc(N)c21 (stereo not drawn) [Example 228A, 4-amino-5-(5-chloropyridin-2-yl)-5-methyl-2-(8-(3,3,4,4,4-pentafluorobutyl)imidazo [1,2-a]pyrazin-6-yl)-5H-pyrrolo[2,3-d]pyrimidin-6(7H)-one] | – | – | B (Category B=SBP in SHRs 20-40 mmHg)
7 | 156% | 7.30 | CC1(c2cccc(F)c2)C(=O)Nc2nc(-c3cn4ccnc4c(CCC(F)(F)C(F)(F)F)n3)nc(N)c21 (stereo not drawn) [Example 231A, 4-amino-5-(3-fluorophenyl)-5-methyl-2-(8-(3,3,4,4,4-pentafluorobutyl)imidazo [1,2-a]pyrazin-6-yl)-5H-pyrrolo[2,3-d]pyrimidin-6(7H)-one] | – | – | A (Category A=SBP in SHRs<20 mmHg)
8 | 60% | 7.77 | CC1(c2ccccc2)C(=O)Nc2nc(-c3cn4ccnc4c(CCC(F)(F)C(F)(F)F)n3)nc(N)c21 (stereo not drawn) [Example 232B, 4-amino-5-methyl-2-(8-(3,3,4,4,4-pentafluorobutyl)imidazo [1,2-a]pyrazin-6-yl)-5-phenyl-5H-pyrrolo[2,3-d]pyrimidin-6(7H)-one] | C (Category C=SBP in SHRs>40 mmHg) | – | –
